Test results from PubChem BioAssay AID2060497 (Molecular Pharmacology Branch, DTP, NCI, 2025).

System: 317291-083-R-J1-PDC complex spheroids, viability
Assay: Anticancer human tumor 317291-083-R-J1-PDC patient-derived soft tissue sarcoma cell line growth inhibition [GQUAD]
Conditions: for IC50: curve of first compound; for viability, T/C: stronger effect = lower value
Outline: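 Viability of tumor cells grown as complex spheroids with endothelial and stromal cells, exposed to drug combinations. Top concentration at or near clinical Cmax (else 10 microM), diluted in half-log increments.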

[1] = second compound 0.0316 µM, first compound 0.0316 µM
[2] = second compound 0.0316 µM, first compound 0.1 µM
[3] = second compound 0.0316 µM, first compound 0.316 µM
[4] = second compound 0.0316 µM, first compound 1 µM
[5] = second compound 0.0316 µM, first compound 3.16 µM
[6] = second compound 0.0316 µM, first compound 10 µM
[7] = second compound 0.1 µM, first compound 0.0316 µM
[8] = second compound 0.1 µM, first compound 0.1 µM
[9] = second compound 0.1 µM, first compound 0.316 µM
[10] = second compound 0.1 µM, first compound 1 µM
[11] = second compound 0.1 µM, first compound 3.16 µM
[12] = second compound 0.1 µM, first compound 10 µM
[13] = second compound 0.316 µM, first compound 0.0316 µM
[14] = second compound 0.316 µM, first compound 0.1 µM
[15] = second compound 0.316 µM, first compound 0.316 µM
[16] = second compound 0.316 µM, first compound 1 µM
[17] = second compound 0.316 µM, first compound 3.16 µM
[18] = second compound 0.316 µM, first compound 10 µM
[19] = second compound 1 µM, first compound 0.0316 µM
[20] = second compound 1 µM, first compound 0.1 µM
[21] = second compound 1 µM, first compound 0.316 µM
[22] = second compound 1 µM, first compound 1 µM
[23] = second compound 1 µM, first compound 3.16 µM
[24] = second compound 1 µM, first compound 10 µM
[25] = second compound 3.16 µM, first compound 0.0316 µM
[26] = second compound 3.16 µM, first compound 0.1 µM
[27] = second compound 3.16 µM, first compound 0.316 µM
[28] = second compound 3.16 µM, first compound 1 µM
[29] = second compound 3.16 µM, first compound 3.16 µM
[30] = second compound 3.16 µM, first compound 10 µM
[31] = second compound 10 µM, first compound 0.0316 µM
[32] = second compound 10 µM, first compound 0.1 µM
[33] = second compound 10 µM, first compound 0.316 µM
[34] = second compound 10 µM, first compound 1 µM
[35] = second compound 10 µM, first compound 3.16 µM
[36] = second compound 10 µM, first compound 10 µM
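Also: spheroids exposed to compounds for one week before readout.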
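For viability, T/C in this document: percent viability relative to DMSO vehicle wells taken as 100%.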

CC1COCCN1c1cc(C2(S(C)(=N)=O)CC2)nc(-c2ccnc3[nH]ccc23)n1 (stereo unspecified) + Cc1cnc(CNC(=O)c2c(=O)c3ccc(N4CCCN(C)CC4)nc3n3c2sc2ccccc23)cn1
IC50 (second compound 0.0316 µM): 1.28 µM
IC50 (second compound 0.1 µM): 0.493 µM
IC50 (second compound 0.316 µM): < 0.0316 µM
IC50 (second compound 1 µM): < 0.0316 µM
IC50 (second compound 3.16 µM): < 0.0316 µM
IC50 (second compound 10 µM): < 0.0316 µM
viability, T/C [1]: 97.2%
viability, T/C [2]: 99.6%
viability, T/C [3]: 69.2%
viability, T/C [4]: 67.6%
viability, T/C [5]: 19%
viability, T/C [6]: 10.4%
viability, T/C [7]: 66.2%
viability, T/C [8]: 111%
viability, T/C [9]: 64.6%
viability, T/C [10]: 34.4%
viability, T/C [11]: 22.5%
viability, T/C [12]: 23.2%
viability, T/C [13]: 44%
viability, T/C [14]: 42.2%
viability, T/C [15]: 42.8%
viability, T/C [16]: 35%
viability, T/C [17]: 12.2%
viability, T/C [18]: 18.2%
viability, T/C [19]: 34.8%
viability, T/C [20]: 60.1%
viability, T/C [21]: 32.2%
viability, T/C [22]: 20.8%
viability, T/C [23]: 25.3%
viability, T/C [24]: 14.8%
viability, T/C [25]: 16.2%
viability, T/C [26]: 22.4%
viability, T/C [27]: 18%
viability, T/C [28]: 26.7%
viability, T/C [29]: 15.4%
viability, T/C [30]: 14.6%
viability, T/C [31]: 39.2%
viability, T/C [32]: 19.8%
viability, T/C [33]: 46.7%
viability, T/C [34]: 9.84%
viability, T/C [35]: 20.8%
viability, T/C [36]: 9.87%

CC(C)n1c(=O)n(C)c2cnc3cc(F)c(-c4ccc(OCCCN5CCCCC5)nc4)cc3c21 + CN(C)c1ccc(Nc2c3ccc(NC(=O)CCN4CCCC4)cc3nc3cc(NC(=O)CCN4CCCC4)ccc23)cc1
IC50 (second compound 0.0316 µM): 6.62 µM
IC50 (second compound 0.1 µM): 3.82 µM
IC50 (second compound 0.316 µM): 0.784 µM
IC50 (second compound 1 µM): 0.0428 µM
IC50 (second compound 3.16 µM): < 0.0316 µM
IC50 (second compound 10 µM): < 0.0316 µM
viability, T/C [1]: 96.6%
viability, T/C [2]: 88.6%
viability, T/C [3]: 92.1%
viability, T/C [4]: 86.7%
viability, T/C [5]: 79%
viability, T/C [6]: 34.3%
viability, T/C [7]: 92.9%
viability, T/C [8]: 79.9%
viability, T/C [9]: 96.3%
viability, T/C [10]: 81.9%
viability, T/C [11]: 56%
viability, T/C [12]: 20.6%
viability, T/C [13]: 92.8%
viability, T/C [14]: 65%
viability, T/C [15]: 57.6%
viability, T/C [16]: 47.2%
viability, T/C [17]: 49.6%
viability, T/C [18]: 10.5%
viability, T/C [19]: 53.7%
viability, T/C [20]: 44.7%
viability, T/C [21]: 24.4%
viability, T/C [22]: 34.4%
viability, T/C [23]: 20.1%
viability, T/C [24]: 7.52%
viability, T/C [25]: 31.8%
viability, T/C [26]: 12.2%
viability, T/C [27]: 12.3%
viability, T/C [28]: 4.69%
viability, T/C [29]: 4.81%
viability, T/C [30]: 1.25%
viability, T/C [31]: 27.5%
viability, T/C [32]: 3.95%
viability, T/C [33]: 0.88%
viability, T/C [34]: 0.42%
viability, T/C [35]: 0.55%
viability, T/C [36]: 4.73%

C=CC(=O)N1CCN(c2nc(=O)n(-c3c(C)ccnc3C(C)C)c3nc(-c4c(O)cccc4F)c(F)cc23)C(C)C1 (stereo unspecified) + Cc1[nH]c2ccc(F)cc2c1-c1nc2c3cccnc3c3ncccc3c2[nH]1
IC50 (second compound 0.0316 µM): > 10 µM
IC50 (second compound 0.1 µM): > 10 µM
IC50 (second compound 0.316 µM): > 10 µM
IC50 (second compound 1 µM): > 10 µM
IC50 (second compound 3.16 µM): > 10 µM
IC50 (second compound 10 µM): 5.95 µM
viability, T/C [1]: 112%
viability, T/C [2]: 99.2%
viability, T/C [3]: 113%
viability, T/C [4]: 89.5%
viability, T/C [5]: 102%
viability, T/C [6]: 60.8%
viability, T/C [7]: 110%
viability, T/C [8]: 97.4%
viability, T/C [9]: 104%
viability, T/C [10]: 116%
viability, T/C [11]: 93.4%
viability, T/C [12]: 71.8%
viability, T/C [13]: 101%
viability, T/C [14]: 113%
viability, T/C [15]: 105%
viability, T/C [16]: 99.4%
viability, T/C [17]: 104%
viability, T/C [18]: 85.3%
viability, T/C [19]: 109%
viability, T/C [20]: 102%
viability, T/C [21]: 110%
viability, T/C [22]: 104%
viability, T/C [23]: 88.9%
viability, T/C [24]: 73.2%
viability, T/C [25]: 93.3%
viability, T/C [26]: 91.4%
viability, T/C [27]: 96%
viability, T/C [28]: 93.1%
viability, T/C [29]: 74.7%
viability, T/C [30]: 51.5%
viability, T/C [31]: 58.4%
viability, T/C [32]: 69.9%
viability, T/C [33]: 78.5%
viability, T/C [34]: 74.3%
viability, T/C [35]: 74.9%
viability, T/C [36]: 32.7%
